Experimental data reported in patent US20040043403A1, “Process for determining the biological activity of epidermal growth factor receptor tyrosine kinase inhibitors” (priority 2000, published 2004).

Key:
Format in all cases: cell-based, human
[1] = test system: A431, NCI-H596, NCI-H520, MDA-MB-468 and WBCs; test: UniGEM V array 2 h expression profiles of 4 tumor cell lines and WBCs; conditions: 3 μM, cut off set at 3, vs DMSO, data not shown
Description: (§1) 20 million tissue culture cells (about 80% confluent) or 200 million WBCs are incubated for 2 or 24 h in culture medium containing 3 μM of an EGFR tyrosine kinase inhibitor or 0.03% DMSO. Total RNA from cell pellet is isolated using the RNeasy kit (Qiagen). mRNA is isolated using the oligotex mRNA purification kit (Qiagen). The quality of the obtained mRNA is tested by real time RT-PCR using beta-Actin primers (PE Applied Biosystems) with an amplicon size of 300 base pairs (bp). The total RNA is used as a reference to calculate the amount of mRNA-enrichment in the oligotex purified samples.
(§2) Probes for the UniGEM hybridization are synthesized by Incyte Genomics (Palo Alto, Calif., USA). For each probe 200 ng mRNA (50 ng/μl) is shipped in dry ice. The results are analyzed using the Expressionist Software Package provided by GeneData.
(§3) Expression profiles (UniGEM V arrays) of 4 tumor cell lines with different EGFR expression status (A431, NCI-H596, NCI-H520 and MDA-MB-468) and of WBCs upon exposure of cells to 3 μM of COMPOUND A for 2 or 24 h are analyzed. As control, cells treated with DMSO for the same time period are used. […] The cDNA array hybridization is repeated with the UniGEM 1 array using the same mRNA (Table 3).

NCI-H596 = test: Real time RT-PCR gene expression in NCI-H596 cells; conditions: NCI-H596, 3 μM, 24 h; relative to DMSO-treated NCI-H520 calibrator
Description: 20 million tissue culture cells (about 80% confluent) or 200 million WBCs are incubated for 2 or 24 h in culture medium containing 3 μM of an EGFR tyrosine kinase inhibitor or 0.03% DMSO. Total RNA from cell pellet is isolated using the RNeasy kit (Qiagen). mRNA is isolated using the oligotex mRNA purification kit (Qiagen). The quality of the obtained mRNA is tested by real time RT-PCR using beta-Actin primers (PE Applied Biosystems) with an amplicon size of 300 base pairs (bp). The total RNA is used as a reference to calculate the amount of mRNA-enrichment in the oligotex purified samples. The primers and probes are designed from mRNA sequences within the coding region or in the 3′ untranslated region (Table 2). For real time RT-PCR, RNA concentrations between 1 and 50 ng/reaction are used to obtain signals between 15-35 cycles. For each RNA preparation RT-PCR reactions are performed with and without reverse transcriptase to check for genomic DNA contamination. In all RNA samples tested, genomic DNA contamination is less than 1%. To normalize for variability in the initial concentration and quality of the total RNA, Glyceraldehyde-3-phosphate dehydrogenase (GAPDH) is used as an endogenous reference in all quantification experiments. For RT-PCR a one step, two-enzyme system is chosen. The TaqMan PCR Core Reagent Kit (PE #N808-0228) plus the reverse transcriptase MuLV (PE Biosystems # N808-0018) and RNase inhibitor (Roche Diagnostics # 799 025) are mixed as described in the manufacturers protocol. Triplicate measurements are done for target and for reference reactions. […] RT-PCR reactions are done with RNA concentrations of 2.5, 5, 10, 20, 40 and 80 ng per reaction. […] The ΔCT value is determined by subtracting the average reference CT values from the average target CT values of the three measurements. Relative quantification is performed in triplicates, reference and target, using the RT-PCR protocol described above. […] Expression levels for the three genes, calculated relative to NCI-H520, show big differences between the various cell types (Table 5). […]

A431 cells = test: UniGEM V cDNA array expression profile of A431 cells; conditions: 3 μM, 24 hours, RNA from Experiment 1
Description: The following tissue culture cells are chosen because of their EGFR expression status (Table 1). EGFR expression is measured by Western blotting, using anti-EGFR monoclonal antibodies from Transduction Labs (Lexington, Ky.). The cell lines are obtained from the ATCC (Rockville, […].). The cells are cultured in 5% CO2 at 37° C.
as §1, §2, §3

C[C@@H](Nc1ncnc2[nH]c(-c3ccc(O)cc3)cc12)c1ccccc1 [COMPOUND A, (R)-6-(4-hydroxy-phenyl)-4-[(1-phenyl-ethyl)-amino]-7H-pyrrolo[2,3-d]pyrimidine]
2 h expression profiles, induced and repressed genes [1]: almost no induced genes and only few repressed genes
2 h expression profiles: early growth response protein 1 [1]: repression in two cell lines and WBCs
Relative Clusterin expression (NCI-H596): 44.12 n-fold
Relative TRAIL expression (NCI-H596): 81.76 n-fold
Relative VAC-beta expression (NCI-H596): 102.30 n-fold
Gene induction, Micro Array UniGEM V: Acute phase serum amyloid A protein (A431 cells): 3.3
Gene induction, Micro Array UniGEM V: Cathepsin H (A431 cells): 2.4
Gene induction, Micro Array UniGEM V: Complement component 3 (C3) (A431 cells): 3.3
Gene induction, Micro Array UniGEM V: Complement cytolysis inibitor (Clusterin) (A431 cells): 6.6
Gene induction, Micro Array UniGEM V: DNA binding protein inhibitor ID-3 (A431 cells): 2.6
Gene induction, Micro Array UniGEM V: Extracellular protein S1-5 (A431 cells): 2.2
Gene induction, Micro Array UniGEM V: TGF-beta induced gene (A431 cells): 2.7
Gene induction, Micro Array UniGEM V: TRAIL (A431 cells): 4.0
Gene induction, Micro Array UniGEM V: VAC-beta (annexin VIII) (A431 cells): 2.2
